Test results as given in article PMC6796659, “Topoisomerase IB poisons induce histone H2A phosphorylation as a response to DNA damage in Leishmania infantum” (International Journal for Parasitology: Drugs and Drug …, 2019).

What was measured:
[1] = test system: iRFP L. infantum amastigotes infecting mouse splenocytes; experiment: Antileishmanial activity on iRFP L. infantum amastigotes in ex vivo murine splenic explants; type: cell-based, Leishmania infantum
Procedure: Five-week BALB/c female mice infected intraperitoneally with 1.5 × 10^9 metacyclic iRFP L. infantum promastigotes were sacrificed to eviscerate their spleens, which were processed to obtain a suspension of primary splenocytes. Briefly, freshly dissected spleens were washed with cold phosphate-buffered saline (PBS), cut in small pieces and incubated for 20 min with 5 mL of 2 mg/mL collagenase D (Sigma) prepared in buffer (10 mM HEPES, pH 7.4, 150 mM NaCl, 5 mM KCl, 1 mM MgCl2 and 1.8 mM CaCl2). Then, the cell suspension was passed through a 100 μm cell strainer, harvested by centrifugation (500×g for 7 min at 4 °C), washed twice with PBS, and resuspended in RPMI medium (Gibco) supplemented with 10 mM HEPES, 1 mM sodium pyruvate, 1xRPMI 1640 vitamin mix, 10% (v/v) FBS, 50 U/mL penicillin and 50 μg/mL streptomycin. The cell suspension was cultured in 384-well optical bottom black plates (Thermo Scientific) at 37 °C under 5% CO2 atmosphere.
The antileishmanial activity of the compounds was tested both in promastigotes and in amastigotes infecting mouse splenocytes. For this purpose, 384-well optical bottom black plates (Thermo Scientific) were seeded either with free-living iRFP L. infantum promastigotes or with splenic explants infected with iRFP L. infantum amastigotes, which were incubated at 26 °C or 37 °C, respectively. The viability of both iRFP L. infantum stages was measured by recording the fluorescence emitted by viable cells at 708 nm in an Odyssey (Li-Cor) infrared imaging system after a 72-h period of incubation with different concentrations of the compounds. Dose-response curves were obtained by plotting the infrared fluorescence emission of viable parasites vs. different concentrations of testing compounds and were fitted by nonlinear analysis using the Sigma-Plot 10.0 statistical package. The reduction of infrared emission with respect to the negative control was used to determine the 50% effective concentration to kill the parasites (EC50). Both controls and treated groups were tested with DMSO (drug vehicle) concentrations below 0.1%. All compounds and controls were assayed in triplicate.

[2] = Cytotoxicity on uninfected mouse splenocytes (Alamar Blue); type: cell-based; conditions: BALB/c, freshly isolated uninfected mouse splenocytes, non-infected mouse splenocytes, read-out: CC50 (μM) Murine Splenocytes
Procedure: Finally, the cytotoxicity of the compounds was assessed on freshly-isolated mouse splenocytes, which were obtained from uninfected BALB/c mice according to the protocol previously described. Viability of uninfected splenocytes was used to determine the cytotoxic concentration 50 (CC50) by means of the Alamar Blue staining method, according to manufacturer's recommendations (Invitrogen). Selectivity index (SI) for each compound was calculated as the ratio between the CC50 value obtained for splenic cells and the EC50 value for amastigotes.

human Top IB (hTopIB) = molecular target: T1, human Top IB (hTopIB) (Homo sapiens, UniProt P11387); experiment: Relaxation of supercoiled pSK DNA by recombinant hTopIB; type: biochemical; conditions: Table 1
T1 construct: made in house
T1 sequence (P11387 1-765): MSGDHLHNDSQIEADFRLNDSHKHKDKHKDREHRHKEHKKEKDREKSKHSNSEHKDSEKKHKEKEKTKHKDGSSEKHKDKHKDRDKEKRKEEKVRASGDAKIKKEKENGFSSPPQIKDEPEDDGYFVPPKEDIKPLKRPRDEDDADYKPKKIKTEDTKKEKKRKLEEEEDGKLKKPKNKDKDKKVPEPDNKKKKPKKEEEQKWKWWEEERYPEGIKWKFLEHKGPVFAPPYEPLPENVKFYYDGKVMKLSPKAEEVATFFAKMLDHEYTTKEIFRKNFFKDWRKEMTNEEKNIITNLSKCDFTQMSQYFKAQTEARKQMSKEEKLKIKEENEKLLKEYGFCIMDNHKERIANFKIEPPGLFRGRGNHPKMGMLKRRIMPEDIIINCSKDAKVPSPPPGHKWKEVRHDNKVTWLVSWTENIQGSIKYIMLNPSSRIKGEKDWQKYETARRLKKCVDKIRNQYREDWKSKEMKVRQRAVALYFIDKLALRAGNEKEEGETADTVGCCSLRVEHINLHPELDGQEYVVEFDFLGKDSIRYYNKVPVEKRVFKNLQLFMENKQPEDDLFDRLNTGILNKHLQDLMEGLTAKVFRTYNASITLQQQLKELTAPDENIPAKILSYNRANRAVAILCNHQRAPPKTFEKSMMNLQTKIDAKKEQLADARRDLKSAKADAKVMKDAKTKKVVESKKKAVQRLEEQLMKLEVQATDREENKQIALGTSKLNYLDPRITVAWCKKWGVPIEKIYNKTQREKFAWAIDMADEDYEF
Procedure: Expression and purification of LTopIB and hTopIB were carried out according to a previously standardized protocol ([Villa et al., 2003]). The effect of indenoisoquinolines (compounds 1 to 20) on recombinant LTopIB and hTopIB was determined by measuring the relaxation of negatively supercoiled pBluescript-SK DNA plasmid (pSK). Briefly, in a total volume of 20 μL, 100 U of recombinant TopIB were incubated with 0.5 μg of pSK DNA in 10 mM Tris-HCl buffer (pH 7.5), 5 mM MgCl2, 5 mM dithiothreitol (DTT), 0.1 mM EDTA, […] bovine serum albumin, and 150 mM KCl. Different concentrations of indenoisoquinolines were also added. Following a 4-min incubation period at 25 °C, reactions were stopped with 1% (w/v) SDS, and incubated for one extra hour at 37 °C in the presence of 1 mg/mL proteinase K. Subsequently, samples were extracted with 1 vol phenol-chloroform mixture and were loaded on a 1% agarose gel containing 0.1 μg/mL ethidium bromide. The gel was run for 16 h at 4 V/cm, and the images were acquired using a G-Box system (Syngene, United Kingdom).

[3] = test system: L. infantum promastigotes; experiment: Cell cycle analysis by flow cytometry (propidium iodide); type: cell-based, Leishmania infantum; conditions: 1 μM single dose, 0, 8, 24, 48 h
Procedure: One million promastigotes untreated or treated with 1 μM of different indenoisoquinolines were harvested by centrifugation after 0, 8, 24 and 48 h exposure. Promastigotes were washed twice with PBS and fixed by 1 h incubation with 70% methanol at 4 °C. After incubation, cells were centrifuged, washed again with PBS and resuspended in 0.5 mL of citrate buffer (45 mM MgCl2, 20 mM MOPS, 30 mM sodium citrate, 0.1% Triton X-100, pH = 7). Finally, samples with RNAase (50 μg/mL) and propidium iodide ([…]) were incubated at 37 °C during 30 min and analyzed at 589 nm by flow cytometry (Cyan ADP Dako).

SMILES: NCCCn1c2c(c3ccccc3c1=O)C(=O)c1ccccc1-2 [Compound 2]
- SI (Selectivity Index) ([1]; CC50 (splenocytes)/EC50 (amastigotes)): 4.9
- EC50 ([1]; Leishmania infantum, Splenocyte, splenic-infecting iRFP L. infantum amastigotes, 72 h, 37 °C, read-out: EC50 (μM) L. infantum amastigotes): 0.12 ± 0.05 µM
- CC50 [2]: 0.59 ± 0.28 µM
- hTopIB inhibition (human Top IB (hTopIB)): ++ (inhibition at 10 μM)
- effect on cell cycle of promastigotes [3]: did not arrest the cell cycle
